Measurements reported in PubChem BioAssay (NCI).
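Tested at 5 concentrations; 48 h exposure; 96-well plates; endpoints linearly interpolated, else capped at highest concentration. At the GI50, growth is halved. TGI marks complete inhibition of growth.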

Legend:
Test in all cases: NCI tumour cell line growth inhibition, 48 h; in the data active = GI50 below about 0.43 µM; inactive = the rest
UACC-257 melanoma = test system: UACC-257 melanoma
SK-MEL-2 melanoma = test system: SK-MEL-2 melanoma
SNB-19 CNS = test system: SNB-19 CNS
SR leukemia = test system: SR leukemia
A498 renal = test system: A498 renal
T-47D breast = test system: T-47D breast
HS 578T breast = test system: HS 578T breast
A549 NSCLC = test system: A549 NSCLC
SF-295 CNS = test system: SF-295 CNS
MDA-MB-231 breast = test system: MDA-MB-231 breast
PC-3 prostate = test system: PC-3 prostate
HCT-116 colon = test system: HCT-116 colon
786-0 renal = test system: 786-0 renal
TK-10 renal = test system: TK-10 renal
KM12 colon = test system: KM12 colon
CCRF-CEM leukemia = test system: CCRF-CEM leukemia
HOP-62 NSCLC = test system: HOP-62 NSCLC
HOP-92 NSCLC = test system: HOP-92 NSCLC
OVCAR-3 ovarian = test system: OVCAR-3 ovarian
HCC-2998 colon = test system: HCC-2998 colon
COLO 205 colon = test system: COLO 205 colon
SK-OV-3 ovarian = test system: SK-OV-3 ovarian
NCI-H522 lung = test system: NCI-H522 lung
MOLT-4 leukemia = test system: MOLT-4 leukemia
U251 CNS = test system: U251 CNS
IGROV1 ovarian = test system: IGROV1 ovarian
NCI-H460 lung = test system: NCI-H460 lung
HCT-15 colon = test system: HCT-15 colon
RXF 393 renal = test system: RXF 393 renal
SK-MEL-5 melanoma = test system: SK-MEL-5 melanoma
NCI-H226 lung = test system: NCI-H226 lung
CAKI-1 renal = test system: CAKI-1 renal
K-562 leukemia = test system: K-562 leukemia
MDA-MB-435 = test system: MDA-MB-435
OVCAR-5 ovarian = test system: OVCAR-5 ovarian
OVCAR-4 ovarian = test system: OVCAR-4 ovarian
SF-268 CNS = test system: SF-268 CNS
UACC-62 melanoma = test system: UACC-62 melanoma
SNB-75 CNS = test system: SNB-75 CNS
SW-620 colon = test system: SW-620 colon
UO-31 renal = test system: UO-31 renal
LOX IMVI melanoma = test system: LOX IMVI melanoma
HT29 colon = test system: HT29 colon
NCI/ADR-RES ovarian = test system: NCI/ADR-RES ovarian
MALME-3M melanoma = test system: MALME-3M melanoma
EKVX NSCLC = test system: EKVX NSCLC
M14 melanoma = test system: M14 melanoma
NCI-H23 lung = test system: NCI-H23 lung
SK-MEL-28 melanoma = test system: SK-MEL-28 melanoma
BT-549 breast = test system: BT-549 breast
DU-145 prostate = test system: DU-145 prostate
RPMI-8226 leukemia = test system: RPMI-8226 leukemia
ACHN renal = test system: ACHN renal
HL-60(TB) leukemia = test system: HL-60(TB) leukemia
OVCAR-8 ovarian = test system: OVCAR-8 ovarian
MCF7 breast = test system: MCF7 breast
SF-539 CNS = test system: SF-539 CNS
SN12C renal = test system: SN12C renal

O=C1CNc2cc(N3CCN(c4ccccc4)CC3)ccc2N1
> 100 µM: TGI (UACC-257 melanoma) | TGI (SK-MEL-2 melanoma) | TGI (SNB-19 CNS) | TGI (SR leukemia) | TGI (A498 renal) | TGI (T-47D breast) | TGI (HS 578T breast) | TGI (A549 NSCLC) | TGI (SF-295 CNS) | TGI (MDA-MB-231 breast) | TGI (PC-3 prostate) | TGI (HCT-116 colon) | TGI (786-0 renal) | TGI (TK-10 renal) | TGI (KM12 colon) | TGI (CCRF-CEM leukemia) | TGI (HOP-62 NSCLC) | TGI (HOP-92 NSCLC) | TGI (OVCAR-3 ovarian) | TGI (HCC-2998 colon) | TGI (COLO 205 colon) | TGI (SK-OV-3 ovarian) | TGI (NCI-H522 lung) | TGI (MOLT-4 leukemia) | TGI (U251 CNS) | TGI (IGROV1 ovarian) | TGI (NCI-H460 lung) | TGI (HCT-15 colon) | TGI (RXF 393 renal) | TGI (SK-MEL-5 melanoma) | TGI (NCI-H226 lung) | TGI (CAKI-1 renal) | TGI (K-562 leukemia) | TGI (MDA-MB-435) | TGI (OVCAR-5 ovarian) | TGI (OVCAR-4 ovarian) | TGI (SF-268 CNS) | TGI (UACC-62 melanoma) | TGI (SNB-75 CNS) | TGI (SW-620 colon) | TGI (UO-31 renal) | TGI (LOX IMVI melanoma) | TGI (HT29 colon) | TGI (NCI/ADR-RES ovarian) | TGI (MALME-3M melanoma) | TGI (EKVX NSCLC) | TGI (M14 melanoma) | TGI (NCI-H23 lung) | TGI (SK-MEL-28 melanoma) | TGI (BT-549 breast) | TGI (DU-145 prostate) | TGI (RPMI-8226 leukemia) | TGI (ACHN renal) | TGI (HL-60(TB) leukemia) | TGI (OVCAR-8 ovarian)

COc1ccc2c(c1)CC1Cc3cc(OC)c(OC)cc3CN1CC2 (centres undefined)
89 µM: TGI (CCRF-CEM leukemia)
> 100 µM: TGI (UACC-257 melanoma) | TGI (SK-MEL-2 melanoma) | TGI (SNB-19 CNS) | TGI (A498 renal) | TGI (T-47D breast) | TGI (HS 578T breast) | TGI (A549 NSCLC) | TGI (SF-295 CNS) | TGI (MDA-MB-231 breast) | TGI (PC-3 prostate) | TGI (HCT-116 colon) | TGI (786-0 renal) | TGI (TK-10 renal) | TGI (KM12 colon) | TGI (HOP-62 NSCLC) | TGI (OVCAR-3 ovarian) | TGI (HCC-2998 colon) | TGI (COLO 205 colon) | TGI (SK-OV-3 ovarian) | TGI (NCI-H522 lung) | TGI (MOLT-4 leukemia) | TGI (U251 CNS) | TGI (IGROV1 ovarian) | TGI (NCI-H460 lung) | TGI (HCT-15 colon) | TGI (RXF 393 renal) | TGI (SK-MEL-5 melanoma) | TGI (NCI-H226 lung) | TGI (CAKI-1 renal) | TGI (K-562 leukemia) | TGI (MDA-MB-435) | TGI (OVCAR-5 ovarian) | TGI (OVCAR-4 ovarian) | TGI (SF-268 CNS) | TGI (UACC-62 melanoma) | TGI (SNB-75 CNS) | TGI (SW-620 colon) | TGI (UO-31 renal) | TGI (LOX IMVI melanoma) | TGI (HT29 colon) | TGI (NCI/ADR-RES ovarian) | TGI (MALME-3M melanoma) | TGI (EKVX NSCLC) | TGI (M14 melanoma) | TGI (NCI-H23 lung) | TGI (SK-MEL-28 melanoma) | TGI (BT-549 breast) | TGI (DU-145 prostate) | TGI (RPMI-8226 leukemia) | TGI (ACHN renal) | TGI (OVCAR-8 ovarian)
34.3 µM: TGI (HL-60(TB) leukemia)
60.3 µM: TGI (SR leukemia)
67.2 µM: TGI (HOP-92 NSCLC)

Nc1nc(-c2cccc3ccccc23)cc2ccccc12
12.4 µM: TGI (M14 melanoma)
13.9 µM: TGI (SK-OV-3 ovarian)
2.98 µM: TGI (DU-145 prostate)
active: GI50 (UACC-257 melanoma) 0.196 µM | GI50 (MCF7 breast) 0.108 µM | GI50 (A498 renal) 0.351 µM | GI50 (T-47D breast) 0.359 µM | GI50 (HS 578T breast) 0.245 µM | GI50 (SF-539 CNS) 0.291 µM | GI50 (SF-295 CNS) 0.278 µM | GI50 (PC-3 prostate) 0.257 µM | GI50 (HCT-116 colon) 0.342 µM | GI50 (KM12 colon) 0.386 µM | GI50 (CCRF-CEM leukemia) 0.234 µM | GI50 (OVCAR-3 ovarian) 0.343 µM | GI50 (HCC-2998 colon) 0.231 µM | GI50 (COLO 205 colon) 0.332 µM | GI50 (NCI-H522 lung) 0.324 µM | GI50 (NCI-H460 lung) 0.332 µM | GI50 (HCT-15 colon) 0.409 µM | GI50 (SK-MEL-5 melanoma) 0.287 µM | GI50 (SNB-75 CNS) 0.206 µM | GI50 (SW-620 colon) 0.314 µM | GI50 (HT29 colon) 0.358 µM | GI50 (DU-145 prostate) 0.377 µM | GI50 (RPMI-8226 leukemia) 0.214 µM | GI50 (HL-60(TB) leukemia) 0.232 µM
19.7 µM: TGI (OVCAR-5 ovarian)
10.6 µM: TGI (NCI-H460 lung)
13.2 µM: TGI (U251 CNS)
> 44.2 µM: TGI (SR leukemia)
10.3 µM: TGI (SK-MEL-5 melanoma)
27.9 µM: TGI (BT-549 breast)
1.9 µM: TGI (COLO 205 colon)
24.1 µM: TGI (NCI-H23 lung)
12.9 µM: TGI (HT29 colon)
19.6 µM: TGI (CAKI-1 renal)
33.9 µM: TGI (T-47D breast)
18.3 µM: TGI (ACHN renal)
10.4 µM: TGI (OVCAR-3 ovarian)
29.4 µM: TGI (TK-10 renal)
14.2 µM: TGI (LOX IMVI melanoma)
> 40.4 µM: TGI (EKVX NSCLC)
3.8 µM: TGI (SNB-75 CNS)
> 54.2 µM: TGI (MOLT-4 leukemia)
9.7 µM: TGI (KM12 colon)
9.68 µM: TGI (UO-31 renal)
1.12 µM: TGI (HCC-2998 colon)
11.9 µM: TGI (HOP-92 NSCLC)
17.6 µM: TGI (HOP-62 NSCLC)
2.85 µM: TGI (NCI-H522 lung)
4.08 µM: TGI (PC-3 prostate)
inactive: GI50 (SK-MEL-2 melanoma) 0.647 µM | GI50 (SNB-19 CNS) 0.514 µM | GI50 (A549 NSCLC) 0.476 µM | GI50 (MDA-MB-231 breast) 0.712 µM | GI50 (786-0 renal) 0.503 µM | GI50 (TK-10 renal) 6.3 µM | GI50 (HOP-62 NSCLC) 1 µM | GI50 (HOP-92 NSCLC) 1.63 µM | GI50 (SK-OV-3 ovarian) 0.466 µM | GI50 (SN12C renal) 0.789 µM | GI50 (MOLT-4 leukemia) 0.638 µM | GI50 (U251 CNS) 0.494 µM | GI50 (IGROV1 ovarian) 0.444 µM | GI50 (NCI-H226 lung) 1.12 µM | GI50 (CAKI-1 renal) 0.46 µM | GI50 (K-562 leukemia) 4.81 µM | GI50 (OVCAR-5 ovarian) 1.25 µM | GI50 (OVCAR-4 ovarian) 1.6 µM | GI50 (SF-268 CNS) 0.53 µM | GI50 (UACC-62 melanoma) 0.521 µM | GI50 (UO-31 renal) 1.17 µM | GI50 (LOX IMVI melanoma) 0.777 µM | GI50 (NCI/ADR-RES ovarian) 0.463 µM | GI50 (EKVX NSCLC) 1.29 µM | GI50 (M14 melanoma) 0.549 µM | GI50 (NCI-H23 lung) 0.732 µM | GI50 (SK-MEL-28 melanoma) 0.563 µM | GI50 (BT-549 breast) 13.2 µM | GI50 (ACHN renal) 1.1 µM | GI50 (OVCAR-8 ovarian) 0.577 µM
13.4 µM: TGI (SNB-19 CNS) | TGI (MDA-MB-231 breast) | TGI (HCT-116 colon) | TGI (786-0 renal)
24 µM: TGI (SK-MEL-28 melanoma)
3.91 µM: TGI (HS 578T breast)
3.96 µM: TGI (A498 renal)
24.4 µM: TGI (OVCAR-4 ovarian)
16 µM: TGI (UACC-257 melanoma) | TGI (SN12C renal)
13.8 µM: TGI (SF-295 CNS)
22.1 µM: TGI (NCI/ADR-RES ovarian)
3.17 µM: TGI (CCRF-CEM leukemia)
10.8 µM: TGI (SF-268 CNS)
14.9 µM: TGI (A549 NSCLC)
20 µM: TGI (SW-620 colon)
1.69 µM: TGI (SF-539 CNS)
5.44 µM: TGI (IGROV1 ovarian)
22.3 µM: TGI (SK-MEL-2 melanoma)
15.9 µM: TGI (NCI-H226 lung)
0.573 µM: TGI (RPMI-8226 leukemia)
17.8 µM: TGI (OVCAR-8 ovarian)
> 100 µM: TGI (K-562 leukemia) | TGI (HL-60(TB) leukemia)
12.6 µM: TGI (HCT-15 colon)
13.1 µM: TGI (MCF7 breast)
14.6 µM: TGI (UACC-62 melanoma)
